#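 Dose response: 5 concentrations. Exposure: 48 h. Format: 96-well plates. Endpoint: linear interpolation; highest concentration if not reached. TGI denotes the concentration required for complete inhibition of growth.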
# Experiments:
# Assay in all cases: inhibition of tumour cell growth, NCI panel, 48 h
# OVCAR-5 ovarian = test system: OVCAR-5 ovarian
# SN12C renal = test system: SN12C renal
# HOP-62 NSCLC = test system: HOP-62 NSCLC
# K-562 leukemia = test system: K-562 leukemia
# A549 NSCLC = test system: A549 NSCLC
# OVCAR-3 ovarian = test system: OVCAR-3 ovarian
# UACC-257 melanoma = test system: UACC-257 melanoma
# MOLT-4 leukemia = test system: MOLT-4 leukemia
# HT29 colon = test system: HT29 colon
# RXF-631 renal = test system: RXF-631 renal
# SK-MEL-5 melanoma = test system: SK-MEL-5 melanoma
# NCI-H460 lung = test system: NCI-H460 lung
# SNB-75 CNS = test system: SNB-75 CNS
# HCT-116 colon = test system: HCT-116 colon
# KM20L2 colon = test system: KM20L2 colon
# NCI-H226 lung = test system: NCI-H226 lung
# LOX IMVI melanoma = test system: LOX IMVI melanoma
# DMS 114 small cell lung = test system: DMS 114 small cell lung
# SK-MEL-28 melanoma = test system: SK-MEL-28 melanoma
# TK-10 renal = test system: TK-10 renal
# SR leukemia = test system: SR leukemia
# SNB-19 CNS = test system: SNB-19 CNS
# LXFL 529 NSCLC = test system: LXFL 529 NSCLC
# DLD-1 colon = test system: DLD-1 colon
# NCI-H522 lung = test system: NCI-H522 lung
# IGROV1 ovarian = test system: IGROV1 ovarian
# 786-0 renal = test system: 786-0 renal
# SF-295 CNS = test system: SF-295 CNS
# COLO 205 colon = test system: COLO 205 colon
# CAKI-1 renal = test system: CAKI-1 renal
# SNB-78 CNS = test system: SNB-78 CNS
# M14 melanoma = test system: M14 melanoma
# KM12 colon = test system: KM12 colon
# SK-MEL-2 melanoma = test system: SK-MEL-2 melanoma
# RXF 393 renal = test system: RXF 393 renal
# U251 CNS = test system: U251 CNS
# HCT-15 colon = test system: HCT-15 colon
# UO-31 renal = test system: UO-31 renal
# CCRF-CEM leukemia = test system: CCRF-CEM leukemia
# OVCAR-8 ovarian = test system: OVCAR-8 ovarian
# NCI-H23 lung = test system: NCI-H23 lung
# OVCAR-4 ovarian = test system: OVCAR-4 ovarian
# RPMI-8226 leukemia = test system: RPMI-8226 leukemia
# SF-268 CNS = test system: SF-268 CNS
# HL-60(TB) leukemia = test system: HL-60(TB) leukemia
# HOP-92 NSCLC = test system: HOP-92 NSCLC
# ACHN renal = test system: ACHN renal
# SW-620 colon = test system: SW-620 colon
# SK-OV-3 ovarian = test system: SK-OV-3 ovarian
# MALME-3M melanoma = test system: MALME-3M melanoma
# DMS 273 small cell lung = test system: DMS 273 small cell lung
# UACC-62 melanoma = test system: UACC-62 melanoma
# HOP-18 NSCLC = test system: HOP-18 NSCLC
# A498 renal = test system: A498 renal
# SF-539 CNS = test system: SF-539 CNS
# HCC-2998 colon = test system: HCC-2998 colon
# XF 498 CNS = test system: XF 498 CNS
# M19-MEL melanoma = test system: M19-MEL melanoma
# EKVX NSCLC = test system: EKVX NSCLC
smiles,measurement,setting,value
O=c1c(O)c(-c2ccccc2)n(O)c2ccc(Cl)cc12,TGI,OVCAR-5 ovarian,95.3 µM
same,TGI,SN12C renal,49.8 µM
same,TGI,HOP-62 NSCLC,60.3 µM
same,TGI,K-562 leukemia,> 100 µM
same,TGI,A549 NSCLC,> 100 µM
same,TGI,OVCAR-3 ovarian,> 100 µM
same,TGI,UACC-257 melanoma,> 100 µM
same,TGI,MOLT-4 leukemia,> 100 µM
same,TGI,HT29 colon,> 100 µM
same,TGI,RXF-631 renal,> 100 µM
same,TGI,SK-MEL-5 melanoma,42.1 µM
same,TGI,NCI-H460 lung,69.2 µM
same,TGI,SNB-75 CNS,80.8 µM
same,TGI,HCT-116 colon,24.6 µM
same,TGI,KM20L2 colon,83.9 µM
same,TGI,NCI-H226 lung,45.1 µM
same,TGI,LOX IMVI melanoma,27.2 µM
same,TGI,DMS 114 small cell lung,54.9 µM
same,TGI,SK-MEL-28 melanoma,> 100 µM
same,TGI,TK-10 renal,72.3 µM
same,TGI,SR leukemia,> 100 µM
same,TGI,SNB-19 CNS,> 100 µM
same,TGI,LXFL 529 NSCLC,64 µM
same,TGI,DLD-1 colon,> 100 µM
same,TGI,NCI-H522 lung,51.7 µM
same,TGI,IGROV1 ovarian,89.9 µM
same,TGI,786-0 renal,> 100 µM
same,TGI,SF-295 CNS,> 100 µM
same,TGI,COLO 205 colon,> 100 µM
same,TGI,CAKI-1 renal,71.1 µM
same,TGI,SNB-78 CNS,> 100 µM
same,TGI,M14 melanoma,> 100 µM
same,TGI,KM12 colon,80.9 µM
same,TGI,SK-MEL-2 melanoma,58.6 µM
same,TGI,RXF 393 renal,63 µM
same,TGI,U251 CNS,> 100 µM
same,TGI,HCT-15 colon,49.6 µM
same,TGI,UO-31 renal,> 100 µM
same,TGI,CCRF-CEM leukemia,> 100 µM
same,TGI,OVCAR-8 ovarian,52.1 µM
same,TGI,NCI-H23 lung,> 100 µM
same,TGI,OVCAR-4 ovarian,> 100 µM
same,TGI,RPMI-8226 leukemia,> 100 µM
same,TGI,SF-268 CNS,> 100 µM
same,TGI,HL-60(TB) leukemia,62.8 µM
same,TGI,HOP-92 NSCLC,96.5 µM
same,TGI,ACHN renal,74 µM
same,TGI,SW-620 colon,34.5 µM
same,TGI,SK-OV-3 ovarian,78.6 µM
same,TGI,MALME-3M melanoma,> 100 µM
same,TGI,DMS 273 small cell lung,58.6 µM
same,TGI,UACC-62 melanoma,55.3 µM
same,TGI,HOP-18 NSCLC,> 100 µM
same,TGI,A498 renal,78.4 µM
same,TGI,SF-539 CNS,48 µM
same,TGI,HCC-2998 colon,40.1 µM
CC1CCN(CCC(=O)CC(c2ccccc2)c2c(O)c3ccccc3oc2=O)CC1 (stereo not drawn),TGI,HOP-62 NSCLC,> 100 µM
same,TGI,K-562 leukemia,> 100 µM
same,TGI,A549 NSCLC,> 100 µM
same,TGI,OVCAR-3 ovarian,> 100 µM
same,TGI,UACC-257 melanoma,> 100 µM
same,TGI,MOLT-4 leukemia,> 100 µM
same,TGI,HT29 colon,> 100 µM
same,TGI,RXF-631 renal,> 100 µM
same,TGI,XF 498 CNS,> 100 µM
same,TGI,SK-MEL-5 melanoma,> 100 µM
same,TGI,NCI-H460 lung,> 100 µM
same,TGI,SNB-75 CNS,> 100 µM
same,TGI,HCT-116 colon,> 100 µM
same,TGI,KM20L2 colon,> 100 µM
same,TGI,NCI-H226 lung,> 100 µM
same,TGI,LOX IMVI melanoma,> 100 µM
same,TGI,DMS 114 small cell lung,> 100 µM
same,TGI,SK-MEL-28 melanoma,> 100 µM
same,TGI,TK-10 renal,> 100 µM
same,TGI,SR leukemia,> 100 µM
same,TGI,SNB-19 CNS,> 100 µM
same,TGI,DLD-1 colon,> 100 µM
same,TGI,NCI-H522 lung,> 100 µM
same,TGI,IGROV1 ovarian,> 100 µM
same,TGI,786-0 renal,> 100 µM
same,TGI,SF-295 CNS,> 100 µM
same,TGI,COLO 205 colon,> 100 µM
same,TGI,CAKI-1 renal,> 100 µM
same,TGI,SNB-78 CNS,> 100 µM
same,TGI,M19-MEL melanoma,> 100 µM
same,TGI,EKVX NSCLC,> 100 µM
same,TGI,M14 melanoma,> 100 µM
same,TGI,KM12 colon,> 100 µM
same,TGI,SK-MEL-2 melanoma,> 100 µM
same,TGI,RXF 393 renal,> 100 µM
same,TGI,U251 CNS,> 100 µM
same,TGI,HCT-15 colon,> 100 µM
same,TGI,UO-31 renal,> 100 µM
same,TGI,CCRF-CEM leukemia,> 100 µM
same,TGI,OVCAR-8 ovarian,> 100 µM
same,TGI,NCI-H23 lung,> 100 µM
same,TGI,OVCAR-4 ovarian,> 100 µM
same,TGI,RPMI-8226 leukemia,> 100 µM
same,TGI,SF-268 CNS,> 100 µM
same,TGI,HL-60(TB) leukemia,> 100 µM
same,TGI,ACHN renal,> 100 µM
same,TGI,SW-620 colon,> 100 µM
same,TGI,SK-OV-3 ovarian,> 100 µM
same,TGI,DMS 273 small cell lung,> 100 µM
same,TGI,UACC-62 melanoma,> 100 µM
same,TGI,A498 renal,> 100 µM
same,TGI,SF-539 CNS,> 100 µM

# Source: PubChem BioAssay (NCI)
